Source: PubChem BioAssay (NCI)
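Each compound was tested at five concentrations against cells in 96-well plates for 48 hours. Here, GI50 denotes the concentration required for 50% inhibition of growth. TGI: total growth inhibition.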

What was measured:
Test in all cases: growth of human tumour cells (NCI), 48 h
NCI-H226 lung = test system: NCI-H226 lung
NCI-H23 lung = test system: NCI-H23 lung
NCI-H460 lung = test system: NCI-H460 lung
NCI-H522 lung = test system: NCI-H522 lung
NCI/ADR-RES ovarian = test system: NCI/ADR-RES ovarian
OVCAR-3 ovarian = test system: OVCAR-3 ovarian
OVCAR-4 ovarian = test system: OVCAR-4 ovarian
OVCAR-5 ovarian = test system: OVCAR-5 ovarian
OVCAR-8 ovarian = test system: OVCAR-8 ovarian
PC-3 prostate = test system: PC-3 prostate
RPMI-8226 leukemia = test system: RPMI-8226 leukemia
RXF 393 renal = test system: RXF 393 renal
SF-268 CNS = test system: SF-268 CNS
SF-539 CNS = test system: SF-539 CNS
SK-MEL-2 melanoma = test system: SK-MEL-2 melanoma
SK-MEL-28 melanoma = test system: SK-MEL-28 melanoma
SK-MEL-5 melanoma = test system: SK-MEL-5 melanoma
SK-OV-3 ovarian = test system: SK-OV-3 ovarian
SN12C renal = test system: SN12C renal
SNB-19 CNS = test system: SNB-19 CNS
SNB-75 CNS = test system: SNB-75 CNS
SR leukemia = test system: SR leukemia
SW-620 colon = test system: SW-620 colon
T-47D breast = test system: T-47D breast
TK-10 renal = test system: TK-10 renal
U251 CNS = test system: U251 CNS
UACC-257 melanoma = test system: UACC-257 melanoma
UACC-62 melanoma = test system: UACC-62 melanoma
UO-31 renal = test system: UO-31 renal

Q: For `C[C@]12CCC(=O)CC1CC[C@@H]1C2CC[C@@]2(C)C1CC[C@@H]2OC(=O)CC[Se][Se]CCC(=O)O[C@H]1CCC2[C@@H]3CCC4CC(=O)CC[C@]4(C)C3CC[C@@]21C` (some centres not stated), which TGI (NCI-H226 lung) is on record?
A: 5.79 µM

Q: What about the GI50 (NCI-H23 lung) of the same compound?
A: 3.63 µM

Q: And the TGI (NCI-H23 lung)?
A: 18.4 µM

Q: And the GI50 (NCI-H460 lung)?
A: 2.84 µM

Q: What about the TGI (NCI-H460 lung) of the same compound?
A: 9.81 µM

Q: What about the GI50 (NCI-H522 lung) of the same compound?
A: 3.17 µM

Q: And the TGI (NCI-H522 lung)?
A: 10.9 µM

Q: What about the GI50 (NCI/ADR-RES ovarian) of the same compound?
A: 3.03 µM

Q: And the TGI (NCI/ADR-RES ovarian)?
A: 11.4 µM

Q: What about the GI50 (OVCAR-3 ovarian) of the same compound?
A: 2.73 µM

Q: And the TGI (OVCAR-3 ovarian)?
A: 6.84 µM

Q: What about the GI50 (OVCAR-4 ovarian) of the same compound?
A: 3.51 µM

Q: And the TGI (OVCAR-4 ovarian)?
A: 15.6 µM

Q: What about the GI50 (OVCAR-5 ovarian) of the same compound?
A: 6.5 µM

Q: What about the TGI (OVCAR-5 ovarian) of the same compound?
A: 25.1 µM

Q: And the GI50 (OVCAR-8 ovarian)?
A: 3.06 µM

Q: What about the TGI (OVCAR-8 ovarian) of the same compound?
A: 9.84 µM

Q: What about the GI50 (PC-3 prostate) of the same compound?
A: 2.55 µM

Q: What about the TGI (PC-3 prostate) of the same compound?
A: 8.27 µM

Q: And the GI50 (RPMI-8226 leukemia)?
A: 5.03 µM

Q: And the TGI (RPMI-8226 leukemia)?
A: > 100 µM

Q: What about the GI50 (RXF 393 renal) of the same compound?
A: 2.08 µM

Q: And the TGI (RXF 393 renal)?
A: 7.95 µM

Q: What about the GI50 (SF-268 CNS) of the same compound?
A: 1.86 µM

Q: What about the TGI (SF-268 CNS) of the same compound?
A: 3.79 µM

Q: And the GI50 (SF-539 CNS)?
A: 3.22 µM

Q: And the TGI (SF-539 CNS)?
A: 10.5 µM

Q: What about the GI50 (SK-MEL-2 melanoma) of the same compound?
A: 2.67 µM

Q: And the TGI (SK-MEL-2 melanoma)?
A: 5.7 µM

Q: What about the GI50 (SK-MEL-28 melanoma) of the same compound?
A: 2.01 µM

Q: What about the TGI (SK-MEL-28 melanoma) of the same compound?
A: 5.05 µM

Q: And the GI50 (SK-MEL-5 melanoma)?
A: 1.77 µM

Q: What about the TGI (SK-MEL-5 melanoma) of the same compound?
A: 3.35 µM

Q: What about the GI50 (SK-OV-3 ovarian) of the same compound?
A: 7.15 µM

Q: And the TGI (SK-OV-3 ovarian)?
A: 17.4 µM

Q: And the GI50 (SN12C renal)?
A: 1.82 µM

Q: And the TGI (SN12C renal)?
A: 3.75 µM

Q: What about the GI50 (SNB-19 CNS) of the same compound?
A: 2.25 µM

Q: And the TGI (SNB-19 CNS)?
A: 6.43 µM

Q: And the GI50 (SNB-75 CNS)?
A: 1.48 µM

Q: And the TGI (SNB-75 CNS)?
A: 3.02 µM

Q: And the GI50 (SR leukemia)?
A: 4.28 µM

Q: And the TGI (SR leukemia)?
A: > 100 µM

Q: And the GI50 (SW-620 colon)?
A: 4.81 µM

Q: What about the TGI (SW-620 colon) of the same compound?
A: 20 µM

Q: And the GI50 (T-47D breast)?
A: 9.1 µM

Q: And the TGI (T-47D breast)?
A: 27.1 µM

Q: What about the GI50 (TK-10 renal) of the same compound?
A: 2.1 µM

Q: What about the TGI (TK-10 renal) of the same compound?
A: 4.79 µM

Q: What about the GI50 (U251 CNS) of the same compound?
A: 1.91 µM

Q: And the TGI (U251 CNS)?
A: 3.85 µM

Q: And the GI50 (UACC-257 melanoma)?
A: 2.86 µM

Q: What about the TGI (UACC-257 melanoma) of the same compound?
A: 13 µM

Q: What about the GI50 (UACC-62 melanoma) of the same compound?
A: 2.2 µM

Q: And the TGI (UACC-62 melanoma)?
A: 8.05 µM

Q: What about the GI50 (UO-31 renal) of the same compound?
A: 2.61 µM

Q: And the TGI (UO-31 renal)?
A: 10.7 µM
